From US20170128480A1, “Cardiac Glycosides for the Treatment of Hypercholesterolemia” (priority 2015, published 2017)

What was measured:
[1] = system: hepatocytes; test: Lipoprotein profile (VLDL/LDL/HDL) of hepatocyte secretion by FPLC; type: cell-based; conditions: 310 nm; 4-hr collection period
Procedure: FIGS. 13A-B (A) is a graph of the results of a FPLC showing the impact of Digoxin and Proscillaridin on the increase in the size of LDL/VLDL particles and the increase of HDL particle number in serum (FIG. 13B, enhanced).
The experiment is a simple collection of cell culture media and then uses a known assay to measure VLDL/LDL/HDL by HPLC.
Cell culture media (the serum samples of example 5) is collected and then using a known assay (see, Example 3) VLDL/LDL/HDL is measured by FPLC HPLC. The experiment was performed by Evanthia Pashos Ph.D, a post-doctoral researcher at the University of Pennsylvania. Dr. Pashos was instructed what concentration of drugs to use, how long to incubate, and to record lipoprotein profiles for HDL, LDL, VLDL. […] Hepatocyte secretion was collected and analyzed over a 4-hr collection period.

[2] = system: human ApoB-100; test: Drug treatment of humanized FRGN avatar mice, serum human ApoB-100 and albumin by ELISA; type: in vivo; conditions: i.p., 48-hour period, Digoxin 0.5 mg/kg, Proscillaridin 0.6 mg/kg/day, p≦0.05
Procedure: Prior to any drug or vehicle treatment, the ratio of ApoB-100 to albumin is approximately 30% higher in the serum of avatars repopulated with hepatocytes from donor A compared to donor B (p=0.032) (FIG. 8A). Human ApoB-100 and albumin is then measured before and after treatment with DMSO (vehicle), Digoxin or Proscillaridin, over a 48-hour period of time (FIG. 8C). […] The concentration of human albumin is unaffected in the serum of the same animals (FIG. 8B).
A sandwich ELISA to detect human albumin in tissue culture supernatants and mouse sera uses a 1:100 dilution of a capture human albumin coating antibody (Bethyl laboratories, A80-129A) and a 1:85,000 dilution of a Horseradish Peroxidase (HRP) conjugated human albumin detection antibody (Bethyl laboratories, A80-129P). Bound antibody is detected using 3,3′,5,5′-tetramethylbenzidine (TMB) and the concentration of albumin in each sample is determined by comparing to a standard curve (Bethyl laboratories, RS10-110). Human lipidated apoB-100 is detected using a commercial sandwich ELISA (product code: 3715-1H-6; MabTech, Inc.) and detected using TMB. The concentration of apoB-100 is determined by comparing to a standard curve using lipidated apoB-100 supplied by the manufacturer.
Fah^−/−Rag2^−/−IL2 gr^−/−NOD (FRGN) mice are generated and supplied by Dr. Markus Grompe. […]

[3] = system: FH patient-specific iPSC-derived hepatocytes; test: ApoB-100 ELISA on culture medium of FH patient-specific iPSC-derived hepatocytes ([…] screen and triplicate validation); type: cell-based, human; conditions: tested in triplicate; FIG. 3
Procedure: ApoB-100 secretion is measured by enzyme linked immunosorbent assay (ELISA) using an antibody that specifically detects lipidated apoB-100, which represents lipoprotein particles secreted by the iPSC-derived hepatocytes. […] FH patient-specific iPSC cells are differentiated to hepatocyte-like cells in 96-well plates and the levels of lipidated ApoB-100 are measured before and after the application of 2320 small molecules from the [sequence] collection drug library (FIGS. 2A-B).
Using the before-drug and after-drug ApoB-100 concentration for each individual well (see the Examples below; each well represents 1 drug), a post:pre drug ratio of ApoB-100 is generated (referred to as delta-apoB-100; FIGS. 2A and 2B) and primary hits are identified by z-score analysis (FIG. 2B) as described by Zhang (Zhang, X. D., J Biomol Screen 16, 775-785 (2011)). A z-score is calculated for each compound, representing a multiple of the standard deviation of all the compounds included in the parent plate (30 plates total—FIG. 2A). […]
Pre-drug and post-drug apoB-100 concentrations are determined for each compound in the [sequence] library using a standard curve and four-parameter logistic (4PL) regression model. […] Primary hits are validated in secondary replicate experiments (n=3), and statistical significance is determined by a Student's t-test. […]

[4] = biological target: Na+/K+-ATPase α2 subunit (Rattus norvegicus, UniProt P06686); conditions: Kolansky et al. 1992; cited from earlier work
[5] = biological target: Na+/K+-ATPase α3 subunit (Rattus norvegicus, UniProt P06687); conditions: Kolansky et al. 1992; cited from earlier work

Compound	HDL secretion [1]	VLD/LDL particle size [1]	VLD/LDL total quantity [1]	serum human ApoB-100 levels [2]	Reductions of ApoB-100 levels, of DMSO controls [3]	ouabain sensitivity [4]	ouabain sensitivity [5]
C[C@@H]1OC(O[C@@H]2C=C3CC[C@@H]4[C@H](CC[C@]5(C)[C@@H](c6ccc(=O)oc6)CC[C@]45O)[C@@]3(C)CC2)[C@H](O)C(O)C1O (stereo partly drawn) [Proscillaridin]	increase HDL secretion	increase VLD/LDL particle size	reduce VLD/LDL total quantity	significantly reduces serum ApoB-100 levels			
Gitoxin					27%		
C[C@@H]1O[C@@H](O[C@H]2C[C@@H](O)[C@]3(CO)[C@H]4[C@H](O)C[C@]5(C)[C@@H](C6=CC(=O)OC6)CC[C@]5(O)[C@@H]4CC[C@]3(O)C2)[C@H](O)[C@H](O)[C@H]1O [Ouabain, Ouabain (Strophanthin)]					71%	approximately 40 nM	~80 nM
CC1O[C@@H](O[C@H]2C(O)C[C@H](O[C@H]3C(O)C[C@H](OC4CC[C@@]5(C)[C@H](CC[C@@H]6[C@@H]5C[C@@H](O)[C@]5(C)[C@@H](C7=CC(=O)OC7)CC[C@]65O)C4)OC3C)OC2C)CC(O)[C@@H]1O (stereo partly drawn) [Digoxin]	increase HDL secretion	increase VLD/LDL particle size	reduce VLD/LDL total quantity	significantly reduces serum ApoB-100 levels			
